Assay results published in ChEMBL document CHEMBL1152560, “Substituted 2-arylbenzothiazoles as kinase inhibitors: hit-to-lead optimization” (Bioorg Med Chem, 2009).

Tests used:
[1] = molecular target: Casein kinase I isoform delta (Homo sapiens) (UniProt P48730); experiment: Residual activity of CK1delta at 10 uM by microplate scintillation counting
[2] = molecular target: Mitogen-activated protein kinase kinase kinase kinase 4 (Homo sapiens) (UniProt O95819); experiment: Residual activity of MAP4K4 at 0.1 uM by microplate scintillation counting
[3] = molecular target: Ribosomal protein S6 kinase alpha-2 (Homo sapiens) (UniProt Q15349); experiment: Residual activity of RPS6KA2 at 0.1 uM by microplate scintillation counting
[4] = molecular target: Serine/threonine-protein kinase N1 (Homo sapiens) (UniProt Q16512); experiment: Residual activity of PRK1 at 0.1 uM by microplate scintillation counting
[5] = molecular target: Casein kinase I isoform gamma-2 (Homo sapiens) (UniProt P78368); experiment: Residual activity of CK1gamma2 at 10 uM by microplate scintillation counting
[6] = molecular target: T1, Serine/threonine-protein kinase D3 (Homo sapiens) (UniProt O94806); experiment: Residual activity of PKCnu at 1 uM by microplate scintillation counting
T1 sequence (whole entry): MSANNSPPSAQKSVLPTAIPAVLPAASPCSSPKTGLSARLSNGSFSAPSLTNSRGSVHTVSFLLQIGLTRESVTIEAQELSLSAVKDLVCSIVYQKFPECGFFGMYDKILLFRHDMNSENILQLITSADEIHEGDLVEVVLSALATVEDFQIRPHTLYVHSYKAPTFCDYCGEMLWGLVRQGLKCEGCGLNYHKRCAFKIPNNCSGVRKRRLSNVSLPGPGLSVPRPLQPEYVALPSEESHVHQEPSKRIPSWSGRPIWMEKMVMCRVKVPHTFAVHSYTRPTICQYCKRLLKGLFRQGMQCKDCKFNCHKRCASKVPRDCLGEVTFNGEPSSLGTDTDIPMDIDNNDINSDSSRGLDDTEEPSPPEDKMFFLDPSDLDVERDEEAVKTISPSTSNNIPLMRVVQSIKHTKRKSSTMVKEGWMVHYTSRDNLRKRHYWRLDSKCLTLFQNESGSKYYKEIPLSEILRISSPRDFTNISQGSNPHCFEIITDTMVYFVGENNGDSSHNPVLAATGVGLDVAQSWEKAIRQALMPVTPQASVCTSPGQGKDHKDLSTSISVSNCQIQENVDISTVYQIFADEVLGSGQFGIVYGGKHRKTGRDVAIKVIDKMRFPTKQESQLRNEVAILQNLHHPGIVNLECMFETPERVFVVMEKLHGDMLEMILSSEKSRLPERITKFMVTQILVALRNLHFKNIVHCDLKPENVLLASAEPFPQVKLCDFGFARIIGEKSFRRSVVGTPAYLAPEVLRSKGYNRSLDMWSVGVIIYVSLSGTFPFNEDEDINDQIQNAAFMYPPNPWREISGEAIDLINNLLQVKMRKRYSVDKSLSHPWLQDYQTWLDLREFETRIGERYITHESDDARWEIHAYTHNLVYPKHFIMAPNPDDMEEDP

[7] = molecular target: T2, Ephrin type-B receptor 1 (Homo sapiens) (UniProt P54762); experiment: Residual activity of EPHB1 at 1 uM by microplate scintillation counting
T2 sequence (whole entry): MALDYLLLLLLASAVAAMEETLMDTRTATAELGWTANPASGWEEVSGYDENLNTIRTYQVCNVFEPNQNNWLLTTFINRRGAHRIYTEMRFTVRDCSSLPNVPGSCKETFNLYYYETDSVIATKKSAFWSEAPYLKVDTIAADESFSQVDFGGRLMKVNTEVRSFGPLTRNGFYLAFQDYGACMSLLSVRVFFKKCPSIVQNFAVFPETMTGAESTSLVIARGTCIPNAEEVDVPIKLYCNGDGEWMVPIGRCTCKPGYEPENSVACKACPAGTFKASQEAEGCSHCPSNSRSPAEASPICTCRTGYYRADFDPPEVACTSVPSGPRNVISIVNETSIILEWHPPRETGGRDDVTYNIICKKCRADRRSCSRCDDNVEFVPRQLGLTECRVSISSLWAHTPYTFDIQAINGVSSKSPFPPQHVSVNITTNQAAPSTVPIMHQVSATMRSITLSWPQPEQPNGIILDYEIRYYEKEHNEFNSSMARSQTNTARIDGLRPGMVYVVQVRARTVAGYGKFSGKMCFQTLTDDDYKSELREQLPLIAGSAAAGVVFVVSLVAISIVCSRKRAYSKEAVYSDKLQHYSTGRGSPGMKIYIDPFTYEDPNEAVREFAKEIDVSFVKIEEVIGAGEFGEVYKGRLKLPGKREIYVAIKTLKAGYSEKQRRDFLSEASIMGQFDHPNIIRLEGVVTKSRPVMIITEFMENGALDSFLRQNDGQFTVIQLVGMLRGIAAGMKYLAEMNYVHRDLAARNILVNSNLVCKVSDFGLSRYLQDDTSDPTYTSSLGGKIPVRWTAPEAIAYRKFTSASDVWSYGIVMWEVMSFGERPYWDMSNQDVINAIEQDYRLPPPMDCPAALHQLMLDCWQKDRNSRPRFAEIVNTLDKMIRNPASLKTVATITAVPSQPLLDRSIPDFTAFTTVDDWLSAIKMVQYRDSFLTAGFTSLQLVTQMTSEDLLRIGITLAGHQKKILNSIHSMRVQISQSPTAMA

[8] = molecular target: Ephrin type-A receptor 2 (Homo sapiens) (UniProt P29317); experiment: Residual activity of EPHA2 at 10 uM by microplate scintillation counting
[9] = molecular target: Glycogen synthase kinase-3 beta (Homo sapiens) (UniProt P49841); experiment: Residual activity of GSK3-beta at 1 uM by microplate scintillation counting
[10] = molecular target: T3, Serine/threonine-protein kinase Sgk3 (Homo sapiens) (UniProt Q96BR1); experiment: Residual activity of SGK3 at 0.1 uM by microplate scintillation counting
T3 sequence (whole entry): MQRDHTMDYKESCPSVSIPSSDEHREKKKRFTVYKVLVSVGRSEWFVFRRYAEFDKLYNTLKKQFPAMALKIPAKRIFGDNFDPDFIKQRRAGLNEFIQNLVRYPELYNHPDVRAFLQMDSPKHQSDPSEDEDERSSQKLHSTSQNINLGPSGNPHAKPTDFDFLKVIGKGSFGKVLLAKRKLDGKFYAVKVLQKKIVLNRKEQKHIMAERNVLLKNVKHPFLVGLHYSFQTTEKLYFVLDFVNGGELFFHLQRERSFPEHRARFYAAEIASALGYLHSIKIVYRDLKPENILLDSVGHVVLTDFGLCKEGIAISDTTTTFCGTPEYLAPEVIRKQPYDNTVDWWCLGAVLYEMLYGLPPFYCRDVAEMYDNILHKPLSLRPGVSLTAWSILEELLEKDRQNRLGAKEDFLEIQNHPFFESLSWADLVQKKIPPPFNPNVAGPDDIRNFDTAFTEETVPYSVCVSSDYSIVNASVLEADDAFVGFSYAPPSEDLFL

[11] = molecular target: Casein kinase I isoform gamma-1 (Homo sapiens) (UniProt Q9HCP0); experiment: Residual activity of CK1gamma1 at 10 uM by microplate scintillation counting
[12] = molecular target: Vascular endothelial growth factor receptor 3 (Homo sapiens, UniProt P35916); experiment: Residual activity of VEGFR3 at 0.1 uM by microplate scintillation counting
Vascular endothelial growth factor receptor 3, sequence (P35916 whole entry): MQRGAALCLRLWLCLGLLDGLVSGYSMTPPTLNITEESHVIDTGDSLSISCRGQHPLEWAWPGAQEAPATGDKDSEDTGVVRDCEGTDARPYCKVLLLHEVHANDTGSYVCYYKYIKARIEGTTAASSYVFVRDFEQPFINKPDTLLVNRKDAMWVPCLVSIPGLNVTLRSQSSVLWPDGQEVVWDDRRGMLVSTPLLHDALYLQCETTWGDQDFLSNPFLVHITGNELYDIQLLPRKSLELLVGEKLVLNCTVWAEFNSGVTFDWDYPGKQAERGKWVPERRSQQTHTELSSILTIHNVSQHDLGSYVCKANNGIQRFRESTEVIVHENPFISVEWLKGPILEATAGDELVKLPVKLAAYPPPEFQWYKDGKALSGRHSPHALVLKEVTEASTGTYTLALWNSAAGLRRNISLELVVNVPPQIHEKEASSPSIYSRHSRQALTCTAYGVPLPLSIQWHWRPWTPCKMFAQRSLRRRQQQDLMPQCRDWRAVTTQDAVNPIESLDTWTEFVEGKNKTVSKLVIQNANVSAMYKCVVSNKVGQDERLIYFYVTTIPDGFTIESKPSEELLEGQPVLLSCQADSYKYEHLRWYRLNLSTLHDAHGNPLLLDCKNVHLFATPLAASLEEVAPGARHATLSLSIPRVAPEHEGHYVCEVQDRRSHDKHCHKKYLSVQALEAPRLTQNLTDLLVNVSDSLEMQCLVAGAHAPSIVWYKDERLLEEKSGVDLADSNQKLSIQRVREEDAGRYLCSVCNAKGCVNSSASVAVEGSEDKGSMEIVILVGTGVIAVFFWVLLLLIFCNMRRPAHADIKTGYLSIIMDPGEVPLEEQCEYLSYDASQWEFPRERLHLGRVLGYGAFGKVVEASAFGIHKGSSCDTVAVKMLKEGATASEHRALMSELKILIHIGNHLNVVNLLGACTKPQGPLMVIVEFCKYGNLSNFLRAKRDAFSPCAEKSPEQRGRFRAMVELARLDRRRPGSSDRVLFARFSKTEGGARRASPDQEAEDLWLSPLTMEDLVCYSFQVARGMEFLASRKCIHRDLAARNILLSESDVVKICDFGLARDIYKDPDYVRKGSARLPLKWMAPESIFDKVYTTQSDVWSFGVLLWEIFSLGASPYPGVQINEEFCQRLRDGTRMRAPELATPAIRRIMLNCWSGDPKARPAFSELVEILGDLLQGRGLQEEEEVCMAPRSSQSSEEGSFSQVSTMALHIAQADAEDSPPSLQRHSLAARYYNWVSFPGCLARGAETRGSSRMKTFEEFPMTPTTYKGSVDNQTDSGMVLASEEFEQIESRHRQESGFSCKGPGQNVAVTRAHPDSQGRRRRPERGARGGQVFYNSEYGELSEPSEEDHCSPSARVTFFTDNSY

Casein kinase I isoform delta (Homo sapiens), sequence (P48730 whole entry, looked up, canonical isoform): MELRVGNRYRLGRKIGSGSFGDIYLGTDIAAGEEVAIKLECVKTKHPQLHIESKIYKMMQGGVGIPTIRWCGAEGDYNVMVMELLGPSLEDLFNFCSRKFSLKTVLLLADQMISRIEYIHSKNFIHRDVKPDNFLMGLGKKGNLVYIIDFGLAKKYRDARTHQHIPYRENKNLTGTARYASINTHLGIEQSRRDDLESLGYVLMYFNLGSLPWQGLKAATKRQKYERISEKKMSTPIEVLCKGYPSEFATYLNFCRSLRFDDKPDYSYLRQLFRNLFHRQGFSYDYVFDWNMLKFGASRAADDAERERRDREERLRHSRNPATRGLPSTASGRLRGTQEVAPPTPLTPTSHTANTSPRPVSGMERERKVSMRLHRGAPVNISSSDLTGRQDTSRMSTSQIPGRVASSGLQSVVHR
Mitogen-activated protein kinase kinase kinase kinase 4 (Homo sapiens), sequence (O95819 2-1239 limits assumed): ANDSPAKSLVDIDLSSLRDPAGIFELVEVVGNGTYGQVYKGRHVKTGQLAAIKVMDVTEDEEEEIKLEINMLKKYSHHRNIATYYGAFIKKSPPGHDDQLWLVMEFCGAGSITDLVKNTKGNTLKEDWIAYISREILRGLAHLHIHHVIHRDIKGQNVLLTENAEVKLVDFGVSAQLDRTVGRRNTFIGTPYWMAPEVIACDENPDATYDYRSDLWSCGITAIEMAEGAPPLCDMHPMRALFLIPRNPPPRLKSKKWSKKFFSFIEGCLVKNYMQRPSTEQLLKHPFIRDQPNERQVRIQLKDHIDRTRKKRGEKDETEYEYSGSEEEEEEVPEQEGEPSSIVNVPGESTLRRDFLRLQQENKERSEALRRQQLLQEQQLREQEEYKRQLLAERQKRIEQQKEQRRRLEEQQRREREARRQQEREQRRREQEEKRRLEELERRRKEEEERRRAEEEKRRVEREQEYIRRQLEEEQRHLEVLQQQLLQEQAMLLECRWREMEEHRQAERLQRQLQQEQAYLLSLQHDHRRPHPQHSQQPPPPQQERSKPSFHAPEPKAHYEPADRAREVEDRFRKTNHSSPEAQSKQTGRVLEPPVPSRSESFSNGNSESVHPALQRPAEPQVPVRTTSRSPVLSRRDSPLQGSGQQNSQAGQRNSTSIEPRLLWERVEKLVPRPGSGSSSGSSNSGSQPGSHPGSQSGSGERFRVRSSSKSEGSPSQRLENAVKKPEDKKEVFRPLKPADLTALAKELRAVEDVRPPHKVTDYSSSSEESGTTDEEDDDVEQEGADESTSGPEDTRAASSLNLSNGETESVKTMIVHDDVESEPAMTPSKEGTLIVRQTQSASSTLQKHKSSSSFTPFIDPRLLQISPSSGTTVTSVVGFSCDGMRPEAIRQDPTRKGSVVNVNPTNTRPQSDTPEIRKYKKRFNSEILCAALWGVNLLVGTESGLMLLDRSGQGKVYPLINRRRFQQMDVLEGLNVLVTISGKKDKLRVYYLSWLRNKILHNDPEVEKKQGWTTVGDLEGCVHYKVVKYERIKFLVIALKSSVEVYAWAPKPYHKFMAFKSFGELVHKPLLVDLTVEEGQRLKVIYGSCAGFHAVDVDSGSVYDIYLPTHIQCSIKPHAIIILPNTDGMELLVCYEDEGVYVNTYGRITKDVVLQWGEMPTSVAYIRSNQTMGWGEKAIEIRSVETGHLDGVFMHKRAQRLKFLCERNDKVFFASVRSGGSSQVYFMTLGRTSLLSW
Ephrin type-A receptor 2 (Homo sapiens), sequence (P29317 whole entry): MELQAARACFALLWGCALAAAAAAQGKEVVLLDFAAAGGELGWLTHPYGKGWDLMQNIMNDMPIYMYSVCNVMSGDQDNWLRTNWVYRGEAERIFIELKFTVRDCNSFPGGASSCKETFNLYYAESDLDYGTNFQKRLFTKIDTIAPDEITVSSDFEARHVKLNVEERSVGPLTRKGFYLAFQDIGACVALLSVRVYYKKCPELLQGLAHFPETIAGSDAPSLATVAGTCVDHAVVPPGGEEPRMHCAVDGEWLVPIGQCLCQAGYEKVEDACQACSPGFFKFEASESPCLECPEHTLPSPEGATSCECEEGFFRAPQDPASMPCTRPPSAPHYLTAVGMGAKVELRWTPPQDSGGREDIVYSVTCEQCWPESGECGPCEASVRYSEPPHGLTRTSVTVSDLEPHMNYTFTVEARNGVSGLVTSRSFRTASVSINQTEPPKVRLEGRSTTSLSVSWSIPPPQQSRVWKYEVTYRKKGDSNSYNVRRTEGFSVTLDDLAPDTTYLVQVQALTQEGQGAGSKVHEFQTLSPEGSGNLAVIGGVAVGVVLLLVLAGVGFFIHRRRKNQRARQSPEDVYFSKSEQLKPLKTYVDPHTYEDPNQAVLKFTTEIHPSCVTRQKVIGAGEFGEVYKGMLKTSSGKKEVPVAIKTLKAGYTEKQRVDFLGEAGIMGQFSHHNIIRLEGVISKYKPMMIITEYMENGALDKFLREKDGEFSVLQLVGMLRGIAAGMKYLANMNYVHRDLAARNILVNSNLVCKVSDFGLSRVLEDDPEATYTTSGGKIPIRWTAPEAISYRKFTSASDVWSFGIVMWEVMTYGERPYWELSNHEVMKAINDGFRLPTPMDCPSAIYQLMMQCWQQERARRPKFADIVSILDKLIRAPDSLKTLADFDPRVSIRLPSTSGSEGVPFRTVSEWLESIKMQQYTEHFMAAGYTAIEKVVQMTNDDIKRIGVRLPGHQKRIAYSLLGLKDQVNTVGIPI
Casein kinase I isoform gamma-1 (Homo sapiens), sequence (Q9HCP0 whole entry, looked up, canonical isoform): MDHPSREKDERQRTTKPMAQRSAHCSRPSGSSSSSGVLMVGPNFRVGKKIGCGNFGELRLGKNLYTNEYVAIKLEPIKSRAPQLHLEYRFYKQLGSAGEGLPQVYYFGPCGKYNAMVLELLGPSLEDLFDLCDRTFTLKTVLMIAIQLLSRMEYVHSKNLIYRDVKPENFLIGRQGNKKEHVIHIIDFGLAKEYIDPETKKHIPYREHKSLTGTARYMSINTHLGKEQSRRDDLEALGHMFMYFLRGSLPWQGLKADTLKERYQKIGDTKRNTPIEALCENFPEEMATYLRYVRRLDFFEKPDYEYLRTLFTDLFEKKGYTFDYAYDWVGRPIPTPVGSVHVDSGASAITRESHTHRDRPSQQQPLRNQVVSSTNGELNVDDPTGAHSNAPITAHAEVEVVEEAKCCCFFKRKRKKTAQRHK
Casein kinase I isoform gamma-2 (Homo sapiens), sequence (P78368 whole entry, looked up, canonical isoform): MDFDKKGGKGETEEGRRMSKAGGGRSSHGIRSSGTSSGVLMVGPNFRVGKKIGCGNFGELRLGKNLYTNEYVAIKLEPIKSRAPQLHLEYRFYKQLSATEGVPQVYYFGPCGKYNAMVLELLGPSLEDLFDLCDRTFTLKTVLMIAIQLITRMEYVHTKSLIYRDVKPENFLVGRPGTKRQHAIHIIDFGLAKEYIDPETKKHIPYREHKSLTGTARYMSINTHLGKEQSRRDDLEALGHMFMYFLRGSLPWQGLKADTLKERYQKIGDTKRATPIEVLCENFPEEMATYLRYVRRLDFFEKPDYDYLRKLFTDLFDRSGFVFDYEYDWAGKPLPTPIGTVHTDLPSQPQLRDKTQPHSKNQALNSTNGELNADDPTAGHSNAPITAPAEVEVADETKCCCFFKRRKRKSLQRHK

residual activity [1] [%]	residual activity [2] [%]	residual activity [3] [%]	residual activity [4] [%]	residual activity [5] [%]	residual activity [6] [%]	residual activity [7] [%]	residual activity [8] [%]	residual activity [9] [%]	residual activity [10] [%]	residual activity [11] [%]	residual activity [12] [%]	SMILES
156	85	90	99	217	83	124	190	84	91	256	60	COc1cc2c(Oc3ccc(-c4nc5ccccc5s4)cc3)ncnc2cc1OCCCN1CCN(C)CC1
133	86	92	96	198	87	102	187	91	114	200	57	COc1cc2c(Oc3ccc(-c4nc5ccccc5s4)cc3)ncnc2cc1OCCCN1CCCC1
149	83	91	94	226	88	134	73	93	104	229	64	COc1cc2c(Oc3ccc(-c4nc5ccccc5s4)cc3F)ncnc2cc1OCCCN1CCN(C)CC1
